In patent US20090099237A1, “Methods of treating inflammatory diseases” (Roche Palo Alto LLC, priority 2007, published 2009):

What was measured:
[1] = system: IL-8 production in neutrophils; assay: Neutrophil assay, IL-8 production; assay type: cell-based; conditions: human neutrophils stimulated by inflammatory agents; FIG. 2
Excerpt: (§1) Selective CK1α, CK1α-CK1δ, CK1α-CK1ε or CK1α-CK1δ-CK1ε inhibitors can be tested for their antiinflammatory effects using a variety of in vitro and in vivo tests that are well known in the art. One such in vitro test involves the application of the inhibitor to human neutrophils to observe whether the induction of inflammatory cytokines, such as IL-8, by tumor necrosis factor (TNF) or lipopolysaccharide (LPS) can be reduced. This test is further described in Example 3. An example of an in vivo test, as described in Example 4, is the air pouch model of inflammatory synovitis in mice in which the inhibitors are tested for their blockade of neutrophil influx as well as of inflammatory cytokine accumulation.
The Histopaque 1077 and 1119 gradient density centrifugation method (Sigma-Aldrich) was used to isolate granulocytes from human blood. The granulocytes were recovered from the 1077/1119 interphase, washed twice with PBS. The red blood cells were lysed with PureGene red cell lysis buffer (Gentra Biosystems). The cells were washed again and resuspended in growth media (RPMI, 10% FBS, β-mercaptoethanol, Pen/Strep/glutamine and sodium pyruvate) at a density of 1 to 5 million per ml. […] The supernatant was analyzed for cytokine production (Luminex human 22-plex assay) and the cells were lysed for RNA production and analysis.

[2] = target: T1, CK1α (Homo sapiens, UniProt P48729); assay: In vitro kinase assay (33P, peptide substrate); assay type: biochemical
T1 construct: purchased Invitrogen
T1 sequence (P48729 whole entry): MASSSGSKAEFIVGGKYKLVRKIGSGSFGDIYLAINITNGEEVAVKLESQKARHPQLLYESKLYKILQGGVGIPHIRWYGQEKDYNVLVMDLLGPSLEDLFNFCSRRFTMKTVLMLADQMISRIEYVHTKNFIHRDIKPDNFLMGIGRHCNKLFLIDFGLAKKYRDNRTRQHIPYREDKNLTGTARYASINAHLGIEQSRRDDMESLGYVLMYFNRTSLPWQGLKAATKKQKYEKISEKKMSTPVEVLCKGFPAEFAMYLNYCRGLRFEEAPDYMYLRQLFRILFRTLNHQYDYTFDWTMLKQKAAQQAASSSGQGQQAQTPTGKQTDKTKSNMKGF

[3] = system: LPS-induced air pouch synovitis; assay: Air pouch synovitis model; assay type: in vivo, Balbc/J mice; conditions: 1 μg LPS, FIG. 3
Excerpt: as §1
Adult Balbc/J mice were purchased from Charles River Labs and housed and utilized according IACUC protocols and standards. The airpouch was inflated on the dorsal surface of each mouse with 3 ml of air, after light anesthesia with CO2/O2 mix. Three days later each pouch was re-inflated with 3 mls of air. After an additional three days, the pouches were injected with vehicle or compound (normally in 0.1% DMSO in PBS) in 1 ml per pouch. After 20 to 30 minutes, each pouch received 1 μg of LPS or control (PBS). The animals were euthanized four to six hours later. The pouches were flushed with 2 ml of PBS, the cells were then collected, counted and normalized for volume recovered. The fluid recovered was analyzed for cytokine production (Luminex Mouse 21-plex assay). The cells were lysed for RNA or protein analysis.

IC50 [2]: 1400 nM
Structure (SMILES): NC(=O)c1ccc(-c2nc(-c3ccc4c(c3)OCO4)c(-c3ccccn3)[nH]2)cc1 [SB431542, 4-(4-benzo-[1,3]dioxol-5-yl-5-pyridin-2-yl-1H-imidazol-2-yl)benzamide]
inhibition of IL-8 production in neutrophils [1]: dose-dependent inhibition | production of IL-6 ([3]; mouse air pouch fluid): inhibited | production of MCP1 ([3]; mouse air pouch fluid): inhibited | neutrophil influx ([3]; mouse air pouch, compound injected into pouch): inhibited
